Data taken from patent publication US20230072421A1, “TARGETED RADIOPHARMACEUTICALS FOR THE DIAGNOSIS AND TREATMENT OF PROSTATE CANCER” (Bayer AS, priority 2019, published 2023).

Key:
[1] = target: T1, PSMA-expressing LNCaP cells (Homo sapiens, UniProt Q04609); assay: Internalization assay (membrane bound and internalized Th-227); format: cell-based; settings: 10 nM radiolabeled compound, Th-227 at 375 kBq/nmol, triplicates
T1 construct: PSMA-expressing LNCaP cells; endogenous in cells; host or cells: LNCaP
In short: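 LNCaP cells on poly-L-lysine-coated wells were exposed to 10 nM (final) Th-227-labelled PSMA ligands (375 kBq/nmol) for 30 min or 2 h at 37 °C. Glycine-HCl (50 mM) washes gave membrane-bound activity, and 0.3N NaOH lysates gave internalized activity, both by gamma counting. Values are fmol Th-227 per 10^cells from triplicates.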

[2] = Biodistribution study in LNCaP tumor-bearing mice (Th227 counted in organs); format: in vivo, SCID mice; settings: 1500 kBq/kg
In short: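 SCID mice bearing testosterone pellets and subcutaneous LNCaP flank tumors (~50 mm^2) received a single intravenous dose of the radioactive compound. At set time points, n=3 animals were sacrificed, and organs were removed, weighed and counted for Th227 on a Germanium detector.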

T1 sequence (Q04609 whole entry): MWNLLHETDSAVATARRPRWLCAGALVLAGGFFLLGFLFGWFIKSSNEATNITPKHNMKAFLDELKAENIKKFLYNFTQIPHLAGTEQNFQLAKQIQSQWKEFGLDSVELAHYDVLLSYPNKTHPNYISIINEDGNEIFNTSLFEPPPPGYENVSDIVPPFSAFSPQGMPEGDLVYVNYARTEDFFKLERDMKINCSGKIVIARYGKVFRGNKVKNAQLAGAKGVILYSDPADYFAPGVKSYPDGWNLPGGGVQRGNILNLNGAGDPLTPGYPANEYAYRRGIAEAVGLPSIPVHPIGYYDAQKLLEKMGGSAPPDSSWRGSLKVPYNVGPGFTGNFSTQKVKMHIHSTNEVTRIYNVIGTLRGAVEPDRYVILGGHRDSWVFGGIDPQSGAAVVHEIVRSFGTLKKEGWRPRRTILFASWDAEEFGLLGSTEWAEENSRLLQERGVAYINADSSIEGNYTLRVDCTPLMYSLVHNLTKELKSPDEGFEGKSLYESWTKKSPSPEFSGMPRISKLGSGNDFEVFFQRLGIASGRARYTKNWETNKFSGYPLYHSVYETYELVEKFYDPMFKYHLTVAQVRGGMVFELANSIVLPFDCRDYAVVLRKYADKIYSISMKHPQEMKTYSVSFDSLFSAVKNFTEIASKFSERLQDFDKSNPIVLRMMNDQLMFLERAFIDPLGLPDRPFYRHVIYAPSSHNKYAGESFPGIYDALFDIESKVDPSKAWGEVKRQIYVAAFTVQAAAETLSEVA

Structure (SMILES): O=C([O-])CN1CCN(CC(=O)[O-])CCN(CC(=O)NCC2CCC(C(=O)NC(Cc3ccc4ccccc4c3)C(=O)NCCCCC(NC(=O)NC(CCC(=O)O)C(=O)O)C(=O)O)CC2)CCN(CC(=O)[O-])CC1.[227Th+4] [Example 1-B-D-227Th, [^227Th]Thorium-(3S,10S,14R)-3-[(naphthalen-2-yl)methyl]-1,4,12-trioxo-1-{(1r,4S)-4-[(2-{4,7,10-tris[(carboxy-kappaO)methyl]-1,4,7,10-tetraazacyclododecan-1-yl-kappa^4N^1,N^4,N^7,N^10}acetamido)methyl]cyclohexyl}-2,5,11,13-tetraazahexadecane-10,14,16-tricarboxylate]
- Internalized in LNCaP fmol/10^6 cells 30 min ([1]; 30 min incubation): 3 fmol/10^6 cells
- Membrane bound in LNCaP fmol/10^6 cells 30 min ([1]; 30 min incubation): 16 fmol/10^6 cells
- Internalized in LNCaP fmol/10^6 cells 2 h ([1]; 2 h incubation): 12 fmol/10^6 cells
- Membrane bound in LNCaP fmol/10^6 cells 2 h ([1]; 2 h incubation): 30 fmol/10^6 cells
- Th-227 in Blood ([2]; 0.25 h): 4.97% ID Th-227/g organ
- Th-227 in Liver ([2]; 0.25 h): 1.25% ID Th-227/g organ
- Th-227 in Spleen ([2]; 0.25 h): 1.91% ID Th-227/g organ
- Th-227 in Tumor ([2]; 0.25 h): 2.08% ID Th-227/g organ
- Th-227 in bone ([2]; 0.25 h): 1.70% ID Th-227/g organ
- Th-227 in brain ([2]; 0.25 h): 0.18% ID Th-227/g organ
- Th-227 in kidney ([2]; 0.25 h): 10.76% ID Th-227/g organ
- Th-227 in large intestine ([2]; 0.25 h): 0.75% ID Th-227/g organ
- Th-227 in lung ([2]; 0.25 h): 3.67% ID Th-227/g organ
- Th-227 in muscle ([2]; 0.25 h): 0.88% ID Th-227/g organ
- Th-227 in prostate ([2]; 0.25 h): 6.26% ID Th-227/g organ
- Th-227 in salivary glands ([2]; 0.25 h): 1.61% ID Th-227/g organ
- Th-227 in small intestine ([2]; 0.25 h): 1.21% ID Th-227/g organ
- Th-227 in Blood ([2]; 1 hr): 1.04% ID Th-227/g organ
- Th-227 in Liver ([2]; 1 hr): 0.59% ID Th-227/g organ
- Th-227 in Spleen ([2]; 1 hr): 1.09% ID Th-227/g organ
- Th-227 in Tumor ([2]; 1 hr): 1.16% ID Th-227/g organ
- Th-227 in bone ([2]; 1 hr): 0.99% ID Th-227/g organ
- Th-227 in kidney ([2]; 1 hr): 4.11% ID Th-227/g organ
- Th-227 in large intestine ([2]; 1 hr): 0.18% ID Th-227/g organ
- Th-227 in lung ([2]; 1 hr): 0.98% ID Th-227/g organ
- Th-227 in muscle ([2]; 1 hr): 0.24% ID Th-227/g organ
- Th-227 in prostate ([2]; 1 hr): 2.87% ID Th-227/g organ
- Th-227 in salivary glands ([2]; 1 hr): 0.52% ID Th-227/g organ
- Th-227 in small intestine ([2]; 1 hr): 0.26% ID Th-227/g organ
- Th-227 in Blood ([2]; 4 hr): 0.20% ID Th-227/g organ
- Th-227 in Liver ([2]; 4 hr): 0.43% ID Th-227/g organ
- Th-227 in Spleen ([2]; 4 hr): 0.34% ID Th-227/g organ
- Th-227 in Tumor ([2]; 4 hr): 1.59% ID Th-227/g organ
- Th-227 in bone ([2]; 4 hr): 1.68% ID Th-227/g organ
- Th-227 in brain ([2]; 4 hr): 0.01% ID Th-227/g organ
- Th-227 in kidney ([2]; 4 hr): 2.97% ID Th-227/g organ
- Th-227 in large intestine ([2]; 4 hr): 0.17% ID Th-227/g organ
- Th-227 in lung ([2]; 4 hr): 0.43% ID Th-227/g organ
- Th-227 in muscle ([2]; 4 hr): 0.05% ID Th-227/g organ
- Th-227 in salivary glands ([2]; 4 hr): 0.30% ID Th-227/g organ
- Th-227 in small intestine ([2]; 4 hr): 0.17% ID Th-227/g organ
- Th-227 in Liver ([2]; 24 h): 0.31% ID Th-227/g organ
- Th-227 in Spleen ([2]; 24 h): 0.23% ID Th-227/g organ
- Th-227 in Tumor ([2]; 24 h): 0.95% ID Th-227/g organ
- Th-227 in bone ([2]; 24 h): 1.29% ID Th-227/g organ
- Th-227 in kidney ([2]; 24 h): 0.83% ID Th-227/g organ
- Th-227 in large intestine ([2]; 24 h): 0.07% ID Th-227/g organ
- Th-227 in lung ([2]; 24 h): 0.16% ID Th-227/g organ
- Th-227 in muscle ([2]; 24 h): 0.00% ID Th-227/g organ
- Th-227 in salivary glands ([2]; 24 h): 0.09% ID Th-227/g organ
- Th-227 in small intestine ([2]; 24 h): 0.08% ID Th-227/g organ
- Th-227 in Liver ([2]; 96 h): 0.31% ID Th-227/g organ
- Th-227 in Spleen ([2]; 96 h): 0.29% ID Th-227/g organ
- Th-227 in Tumor ([2]; 96 h): 1.05% ID Th-227/g organ
- Th-227 in bone ([2]; 96 h): 2.88% ID Th-227/g organ
- Th-227 in kidney ([2]; 96 h): 0.37% ID Th-227/g organ
- Th-227 in lung ([2]; 96 h): 0.14% ID Th-227/g organ
- Th-227 in muscle ([2]; 96 h): 0.00% ID Th-227/g organ
- Th-227 in salivary glands ([2]; 96 h): 0.13% ID Th-227/g organ
- Th-227 in small intestine ([2]; 96 h): 0.06% ID Th-227/g organ
